In the supplement of paper PMC4862054:
Values joined by “and” are separate entries in the source; they are usually repeats but may differ in a detail not shown here. Equal entries are not always repeated.

Assays:
Conditions in all cases: incubation time: 72 h
MDA-MB-436 = assay: normalised viability (% of control), CellTiter-Blue; higher = more viable cells (100 = DMSO, 0 = benzethonium chloride kill control)
Experimental: (§1)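 DSRT, CellTiter-Blue viability, 72 h incubation. Signal is normalised to DMSO and benzethonium chloride controls. Value is the normalised response at dose 1.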

MFM-223 [1] = assay: as above
Experimental: as §1

MDA-MB-453 [2] = assay: as above
Experimental: as §1

HCC1143 = assay: as above
Experimental: as §1

MDA-MB-468 = assay: as above
Experimental: as §1

HDQ-P1 [3] = assay: as above
Experimental: as §1

SK-BR-3 = assay: as above
Experimental: as §1

DU-4475 [4] = assay: as above
Experimental: as §1

CAL-148 = assay: as above
Experimental: as §1

CAL-85-1 [5] = assay: as above
Experimental: as §1

Hs578T [6] = assay: as above
Experimental: as §1

MDA-MB-231 [7] = assay: as above
Experimental: as §1

HCC1937 [8] = assay: as above
Experimental: as §1

CAL-120 [9] = assay: as above
Experimental: as §1

BT-549 [10] = assay: as above
Experimental: as §1

MFM-223 [11] = assay: drug sensitivity score (DSS), CellTiter-Glo (DSS (AUC-based score)); higher = stronger drug effect (viability inhibition or cytotoxicity); extreme values may be limits of the assay
Summary of the method: (§2)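 Each compound occupied 5 concentrations in 10-fold steps over its own 10,000-fold range in 384-well plates, into which breast cancer cell lines were seeded as 20 µl suspension. Following 72 h of incubation, CellTox Green fluorescence (485/520 nm) was measured, and CellTiter-Glo luminescence was measured after 10 min at room temperature. Plates were individually normalised to 0.1 % DMSO and a positive kill control. From the area under the fitted dose-response curve, a drug sensitivity score was calculated.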

MDA-MB-453 [12] = assay: as above
Summary of the method: as §2

BT-474 = assay: as above
Summary of the method: as §2

HDQ-P1 [13] = assay: as above
Summary of the method: as §2

DU-4475 [14] = assay: as above
Summary of the method: as §2

CAL-85-1 [15] = assay: as above
Summary of the method: as §2

Hs578T [16] = assay: as above
Summary of the method: as §2

MDA-MB-231 [17] = assay: as above
Summary of the method: as §2

HCC1937 [18] = assay: as above
Summary of the method: as §2

CAL-120 [19] = assay: as above
Summary of the method: as §2

CAL-51 = assay: as above
Summary of the method: as §2

BT-549 [20] = assay: as above
Summary of the method: as §2

| Compound | drug sensitivity score (MFM-223 [11]) | drug sensitivity score (MDA-MB-453 [12]) | drug sensitivity score (BT-474) | drug sensitivity score (HDQ-P1 [13]) | drug sensitivity score (DU-4475 [14]) | drug sensitivity score (CAL-85-1 [15]) | drug sensitivity score (Hs578T [16]) | drug sensitivity score (MDA-MB-231 [17]) | drug sensitivity score (HCC1937 [18]) | drug sensitivity score (CAL-120 [19]) | drug sensitivity score (CAL-51) | drug sensitivity score (BT-549 [20]) | normalised viability (MDA-MB-436; 1 nM) | normalised viability (MFM-223 [1]; 1 nM) | normalised viability (MDA-MB-453 [2]; 1 nM) | normalised viability (HCC1143; 1 nM) | normalised viability (MDA-MB-468; 1 nM) | normalised viability (HDQ-P1 [3]; 1 nM) | normalised viability (SK-BR-3; 1 nM) | normalised viability (DU-4475 [4]; 1 nM) | other results |
| --- | --- | --- | --- | --- | --- | --- | --- | --- | --- | --- | --- | --- | --- | --- | --- | --- | --- | --- | --- | --- | --- |
| C=CC(=O)N1CCC[C@@H](n2nc(-c3ccc(Oc4ccccc4)cc3)c3c(N)ncnc32)C1 |  |  |  |  |  |  |  |  |  |  |  |  |  |  |  |  |  |  |  |  | normalised viability (MDA-MB-436; 0.1 nM): 91%; normalised viability (MFM-223 [1]; 0.1 nM): 99.8%; normalised viability (MDA-MB-453 [2]; 0.1 nM): 103%; normalised viability (HCC1143; 0.1 nM): 88.1%; normalised viability (MDA-MB-468; 0.1 nM): 103%; normalised viability (HDQ-P1 [3]; 0.1 nM): 105%; normalised viability (SK-BR-3; 0.1 nM): 90.7%; normalised viability (DU-4475 [4]; 0.1 nM): 94.8%; normalised viability (CAL-148; 0.1 nM): 102%; normalised viability (CAL-85-1 [5]; 0.1 nM): 86.1%; normalised viability (Hs578T [6]; 0.1 nM): 119%; normalised viability (MDA-MB-231 [7]; 0.1 nM): 101%; normalised viability (HCC1937 [8]; 0.1 nM): 93.3%; normalised viability (CAL-120 [9]; 0.1 nM): 81.3%; normalised viability (BT-549 [10]; 0.1 nM): 118% |
| Nc1nc2[nH]cc(CCc3ccc(C(=O)N[C@@H](CCC(=O)O)C(=O)O)cc3)c2c(=O)[nH]1 [Pemetrexed] | 0 | 0 | 9.78 | 2.5 | 0 | 13.4 | 23.6 | 6.23 | 8.27 | 1.52 | 13.7 | 0 | 104% | 93.1% | 101% | 92.5% | 96.9% | 107% | 98.9% | 99.3% | normalised viability (CAL-148; 1 nM): 113%; normalised viability (CAL-85-1 [5]; 1 nM): 89.2%; normalised viability (Hs578T [6]; 1 nM): 114%; normalised viability (MDA-MB-231 [7]; 1 nM): 100%; normalised viability (HCC1937 [8]; 1 nM): 84.5%; normalised viability (CAL-120 [9]; 1 nM): 87%; normalised viability (BT-549 [10]; 1 nM): 101% |
| Oc1ncc(N(CCCl)CCCl)c(O)n1 [Uracil mustard] | 0 | 0 | 0 | 0 | 0 | 0 | 0 | 0 | 0 | 0 | 0 | 0 | 96.3% | 97.4% | 99.1% | 95.7% | 104% | 110% | 97.3% | 88.3% | normalised viability (CAL-148; 1 nM): 103%; normalised viability (CAL-85-1 [5]; 1 nM): 88.9%; normalised viability (Hs578T [6]; 1 nM): 109%; normalised viability (MDA-MB-231 [7]; 1 nM): 99.4%; normalised viability (HCC1937 [8]; 1 nM): 101%; normalised viability (CAL-120 [9]; 1 nM): 82.3%; normalised viability (BT-549 [10]; 1 nM): 101% |
| Nc1ncn([C@H]2C[C@H](O)[C@@H](CO)O2)c(=O)n1 [Decitabine] | 0 | 0 | 0.527 | 0.141 | 0 | 0 | 0.0828 | 0 | 1.42 | 0.811 | 3.54 | 3.92 | 94.8% and 84.5% | 82.4% and 104% | 93% and 107% | 88.1% and 95.7% | 96.6% and 98.9% | 114% and 108% | 82% and 93.2% | 102% and 101% | normalised viability (CAL-85-1 [5]; 1 nM): 81.4% and 95.5%; normalised viability (Hs578T [6]; 1 nM): 90.4% and 111%; normalised viability (MDA-MB-231 [7]; 1 nM): 111% and 91.6%; normalised viability (HCC1937 [8]; 1 nM): 95.8% and 102%; normalised viability (CAL-120 [9]; 1 nM): 84.8% and 82.6%; normalised viability (BT-549 [10]; 1 nM): 110% and 109% |
| Cc1ccc(-c2cc(C(F)(F)F)nn2-c2ccc(S(N)(=O)=O)cc2)cc1 [Celecoxib] | 0 | 0 | 0 | 0 | 0 | 0 | 0 | 0 | 0 | 0 | 0 | 0 | 104% | 98.5% | 97.3% | 90.7% | 102% | 114% | 75.2% | 89% | normalised viability (CAL-148; 1 nM): 95.4%; normalised viability (CAL-85-1 [5]; 1 nM): 86.8%; normalised viability (Hs578T [6]; 1 nM): 111%; normalised viability (MDA-MB-231 [7]; 1 nM): 117%; normalised viability (HCC1937 [8]; 1 nM): 96.7%; normalised viability (CAL-120 [9]; 1 nM): 78.3%; normalised viability (BT-549 [10]; 1 nM): 90.7% |
| O=C(O)C1(C(=O)O)CCC1.[NH2-].[NH2-].[Pt+2] [Carboplatin] | 0 | 0 | 0 | 0 | 0 | 0 | 0 | 0 | 0 | 0 | 0 | 0 | 102% | 96.6% | 98.7% | 90.7% | 100% | 109% | 105% | 104% | normalised viability (CAL-148; 1 nM): 96.9%; normalised viability (CAL-85-1 [5]; 1 nM): 90.2%; normalised viability (Hs578T [6]; 1 nM): 125%; normalised viability (MDA-MB-231 [7]; 1 nM): 105%; normalised viability (HCC1937 [8]; 1 nM): 80.9%; normalised viability (CAL-120 [9]; 1 nM): 84.1%; normalised viability (BT-549 [10]; 1 nM): 95.2% |
| C[C@H]1C[C@@H]2[C@H]([C@@H](O)C[C@@]3(C)[C@H]2CC[C@]3(O)C(=O)CO)[C@@]2(C)C=CC(=O)C=C12 [Methylprednisolone] | 0 | 0 | 0 | 1.31 | 0 | 0 | 0 | 0 | 0 | 6.14 | 0 | 0 | 108% | 92.7% | 95.4% | 93.3% | 101% | 97.7% | 92.2% | 95.4% | normalised viability (CAL-148; 1 nM): 105%; normalised viability (CAL-85-1 [5]; 1 nM): 84.6%; normalised viability (Hs578T [6]; 1 nM): 122%; normalised viability (MDA-MB-231 [7]; 1 nM): 103%; normalised viability (HCC1937 [8]; 1 nM): 83.7%; normalised viability (CAL-120 [9]; 1 nM): 81.9%; normalised viability (BT-549 [10]; 1 nM): 93% |
